Laboratory results reported in patent US5624923A, “Tricyclic diazepine vasopressin antagonists and oxytocin antagonists” (priority 1995, dated 1997).

Target: T1, oxytocin receptors (Rattus norvegicus, UniProt P70536)
T1 construct: The uteri are dissected out, cleaned of fat and connective tissues; from tissue; host or cells: uterus of DES-treated female Sprague-Dawley rats
T1 sequence (P70536 1-388): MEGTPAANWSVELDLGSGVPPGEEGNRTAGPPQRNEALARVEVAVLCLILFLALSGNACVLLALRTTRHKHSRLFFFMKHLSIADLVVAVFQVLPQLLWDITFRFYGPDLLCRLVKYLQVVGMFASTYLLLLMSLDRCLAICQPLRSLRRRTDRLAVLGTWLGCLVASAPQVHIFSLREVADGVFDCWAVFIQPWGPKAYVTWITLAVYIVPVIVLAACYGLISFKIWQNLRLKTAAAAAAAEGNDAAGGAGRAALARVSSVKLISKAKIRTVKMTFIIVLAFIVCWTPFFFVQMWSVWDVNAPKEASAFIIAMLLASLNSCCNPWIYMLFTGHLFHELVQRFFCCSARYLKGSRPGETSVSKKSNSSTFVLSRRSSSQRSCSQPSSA
Experiment: Oxytocin Receptor Binding
Settings: for inhibition at 10 µM: [3H]oxytocin; for IC50: 1.0 nM [3H]oxytocin
Procedure: Oxytocin Receptor Binding
Female Sprague-Dawley rats weighing approximately 200-250 g are injected intramuscularly (i.m.) with 0.3 mg/kg of body weight of diethylstilbestrol (DES). The rats are sacrificed 18 hours later under pentobarbital anesthesia. The uteri are dissected out, cleaned of fat and connective tissues and rinsed in 50 ml of normal saline. The tissue pooled from six rats is homogenized in 50 ml of […] Tris.HCl, containing 0.5 mM dithiothreitol and 1.0 mM EDTA, adjusted to pH 7.4, using a polytron at setting 6 with three passes of 10 sec each. The homogenate is passed through two (2) layers of cheesecloth and the filtrate centrifuged at 1000× g for 10 min. The clear supernatant is removed and recentrifuged at 165,000× g for 30 min. The resulting pellet containing the oxytocin receptors is resuspended in 50.0 mM Tris.HCl containing 5.0 mM MgCl2 at pH 7.4, to give a protein concentration of 2.5 mg/ml of tissue suspension. This preparation is used in subsequent binding assays with [^3 H]Oxytocin.
Binding of 3,5-[^3 H]Oxytocin ([^3 H]OT) to its receptors is done in microtiter plates using [^3 H]OT, at various concentrations, in an assay buffer of 50.0 mM Tris.HCl, pH 7.4 and containing 5.0 mM MgCl2, and a mixture of protease inhibitors: BSA, 0.1 mg; aprotinin, 1.0 mg; 1,10-phenanthroline, 2.0 mg; […], 10.0 mg; and PMSF, 0.3 mg per 100 ml of buffer solution. Non-specific binding is determined in the presence of 1.0 uM unlabeled OT. The binding reaction is terminated after 60 min , at 22° C. by rapid filtration through glass fiber filters using a Brandel® cell harvester (Biomedical Research and Development Laboratories, Inc., Gaithersburg, Md.). Competition experiments are conducted at equilibrium using 1.0 nM [^3 H]OT and varying the concentration of the displacing agents. The concentrations of agent displacing 50% of [^3 H]OT at its sites (IC50) are calculated by a computer assisted LUNDON-2 program (LUNDON SOFTWARE INC., Ohio, USA).

Row | SMILES | inhibition at 10 µM | IC50
1 | CCOC(=O)c1ccc2n1Cc1ccccc1N(C(=O)c1ccc([N+](=O)[O-])c(C)c1)C2 [Example 444, ethyl 10,11-dihydro-10-(3-methyl-4-nitrobenzoyl)-5H-pyrrolo[2,1-c][1,4]-benzodiazepine-3-carboxylate] | 21% | 
2 | Cc1cc(C(=O)N2Cc3ccc(C(=O)C(Cl)(Cl)Cl)n3Cc3ccccc32)ccc1[N+](=O)[O-] [Example 448] | 11% | 
3 | O=C(c1ccc([N+](=O)[O-])cc1)N1Cc2ccc(C(=O)C(Cl)(Cl)Cl)n2Cc2ccccc21 [Example 449, 10,11-dihydro-10-(4-nitrobenzoyl)-[3-(trichloroacetyl)]-5H-pyrazolo[2,1-c]-[1,4]benzodiazepine] | 14% | 
4 | O=C(c1ccc([N+](=O)[O-])cc1Cl)N1Cc2ccc(C(=O)C(Cl)(Cl)Cl)n2Cc2ccccc21 [Example 450, 10,11-dihydro-10-(2-chloro-4-nitro-benzoyl)-[3-(trichloroacetyl)]-5H-pyrrolo[2,1-c][1,4]benzodiazepine] | 22% | 
5 | O=C(c1ccc([N+](=O)[O-])cc1)N1Cc2ccc(C(=O)C(F)(F)F)n2Cc2ccccc21 [Example 451, 10,11-Dihydro-10-(4-nitrobenzoyl)-[3-(trifluoroacetyl)]-5H-pyrrolo[2,1-c][1,4]benzodiazepine] | 43% | 
6 | O=C(c1ccc([N+](=O)[O-])cc1Cl)N1Cc2ccc(C(=O)C(F)(F)F)n2Cc2ccccc21 [Example 452, 10,11-dihydro-10-(2-chloro-4-nitro-benzoyl)[3-(trifluoroacetyl)]-5H-pyrrolo[2,1-c][1,4]benzodiazepine] | 36% | 
7 | COc1cc(C(=O)N2Cc3cccn3Cc3ccccc32)ccc1[N+](=O)[O-] [Example 455, 10,11-Dihydro-10-(3-methoxy-4-nitrobenzoyl)-5H-pyrrolo[2,1-c][1,4]benzodiazepine] | 75% | 2.9 µM
8 | COc1cc(C(=O)N2Cc3cccn3Cc3ccccc32)ccc1N [Example 460, 10,11-Dihydro-10-(4-amino-3-methoxybenzoyl)-5H-pyrrolo[2,1-c][1,4]benzodiazepine] | 77% | 3.1 µM
9 | Nc1ccc(C(=O)N2Cc3ccc(C(=O)C(F)(F)F)n3Cc3ccccc32)cc1 [Example 462, 10,11-dihydro-10-(4-aminobenzoyl)[3-(trifluoroacetyl)]-5H-pyrrolo[2,1-c]-[1,4]benzodiazepine] | 14% | 
10 | CCOC(=O)c1ccc2n1Cc1ccccc1N(C(=O)c1ccc(N)c(C)c1)C2 [Example 463, ethyl 10,11-dihydro-10-(4-amino-3-methylbenzoyl)-5H-pyrrolo[2,1-c]-[1,4]benzodiazepine-3-carboxylate] | 55% | 8.5 µM
11 | CCOC(=O)c1ccc2n1Cc1ccccc1N(C(=O)c1ccc(N)cc1)C2 [Example 464, ethyl 10,11-dihydro-10-(4-aminobenzoyl)-5H-pyrrolo[2,1-c][1,4]benzodiazepine-3-carboxylate] | 71% | 2.4 µM
